Experimental data reported in patent publication US10881614B2, “Nicotinamide compositions and the therapeutic use thereof” (APeT Holding B.V., priority 2011, dated 2021).

How the values were obtained:
[1] = test system: patients with epilepsy, behavioral and nutritional abnormalities; experiment: Clinical observations under oral nicotinamide therapy; type: in vivo, human
[2] = test system: subjects suspected to suffer from tryptophan malabsorption; conditions: 20 mg/kg/day in six doses, three subjects; cited from earlier work

For `NC(=O)c1cccnc1` [nicotinamide, pyridine-3-carboxamide], the “indican in plasma and urine” value ([1]; nicotinamide therapy) was “normalization”, the “behavioral, neurological and psychiatric abnormalities” value ([1]; oral nicotinamide) was “Remarkable improvement up to normalization” and the intestinal tryptophan absorption ([1]; oral nicotinamide) was “stimulates intestinal tryptophan absorption”. For the same molecule, the “clinical picture under nicotinamide therapy” value ([1]; patients with epilepsy, behavioral and nutritional abnormalities hardly improved by antiepileptic, antidepressant and other drugs) was “normalized in one or two months” and the “effect on behavioral and psychiatric illnesses” value [2] was “beneficial effect”.
